Here are results for one compound from US20210324359A1, “USE OF GRAM-NEGATIVE LYSIN-ANTIMICROBIAL PEPTIDE (AMP) POLYPEPTIDE CONSTRUCTS IN TREATING ENDOCARDITIS” (priority 2020, published 2021).

Where two headings read alike, the source gives them in different places.

For experiment [1], the system named is P. aeruginosa PA20 recovered from rabbit lung homogenates. The format is cell-based, Pseudomonas aeruginosa. Particulars: n=48.
The subject of experiment [2] is 15 P. aeruginosa isolates. In words: MIC of GN370 in dog, human, rabbit and rat serum and CAAT; meropenem in CAMHB (Table 33). The format is cell-based, Pseudomonas aeruginosa. Particulars: Pseudomonas aeruginosa, CAMHB.

For `C[C@@H](O)[C@H]1C(=O)N2C(C(=O)O)=C(S[C@@H]3CN[C@H](C(=O)N(C)C)C3)[C@H](C)[C@H]12` [Meropenem, meropenem, reference compound], the “number of isolates with Meropenem MIC […] μg/mL” value in experiment [1] (isolates from GN370 (3 mg/kg) + Meropenem (20 mg/kg) group), in experiment [1] (isolates from GN370 (3 mg/kg) group), in experiment [1] (isolates from GN370 (10 mg/kg) + Meropenem (20 mg/kg) group), in experiment [1] (isolates from GN370 (10 mg/kg) group), in experiment [1] (isolates from GN370 (30 mg/kg) + Meropenem (20 mg/kg) group) and in experiment [1] (isolates from GN370 (30 mg/kg) group) was 48 each time. Also, the “number of isolates with Meropenem MIC […] μg/mL” value in experiment [1] (isolates from Meropenem (20 mg/kg) group), in experiment [1] (isolates from Pre-treatment control group) and in experiment [1] (isolates from Vehicle control group) was 48 throughout. The MIC (as a rule, the lowest concentration found to suppress growth) in experiment [2] (ATCC25668, read-out: MIC Meropenem, strain ATCC 25668) was 2 µg/mL; in experiment [2] (ATCC27853, read-out: MIC Meropenem, strain ATCC 27853), 0.5 µg/mL; in experiment [2] (PA1, read-out: MIC Meropenem, strain PA1) it was 32 µg/mL; in experiment [2] (read-out: MIC Meropenem, strain AR0231) it was 128 µg/mL; in experiment [2] (read-out: MIC Meropenem, strain AR0241), more than 256 µg/mL; in experiment [2] (read-out: MIC Meropenem, strain AR0246) it was 32 µg/mL. The MIC in experiment [2] (read-out: MIC Meropenem, strain PA2) came to 16 µg/mL; in experiment [2] (read-out: MIC Meropenem, strain PA3) it was 8 µg/mL; in experiment [2] (read-out: MIC Meropenem, strain PA19), 32 µg/mL; in experiment [2] (read-out: MIC Meropenem, strain PA20) it was 32 µg/mL; in experiment [2] (read-out: MIC Meropenem, strain PA22), 16 µg/mL; in experiment [2] (read-out: MIC Meropenem, strain PA23), 16 µg/mL. Besides, the MIC in experiment [2] (read-out: MIC Meropenem, strain PA24) is more than 32 µg/mL; in experiment [2] (read-out: MIC Meropenem, strain PA27), 1 µg/mL; in experiment [2] (read-out: MIC Meropenem, strain PA453), 64 µg/mL.
